Results: ChEMBL document CHEMBL5465560, “Selectivity Literature for EUbOPEN Chemogenomic Library” (2024)

Legend:
[1] = target: T1, Tyrosine-protein kinase ZAP-70 (Homo sapiens) (UniProt P43403); experiment: Selectivity interaction (KinomeScan (DiscoverX)) EUB0000595a ZAP70; conditions: at 10 µM
T1 sequence (whole entry): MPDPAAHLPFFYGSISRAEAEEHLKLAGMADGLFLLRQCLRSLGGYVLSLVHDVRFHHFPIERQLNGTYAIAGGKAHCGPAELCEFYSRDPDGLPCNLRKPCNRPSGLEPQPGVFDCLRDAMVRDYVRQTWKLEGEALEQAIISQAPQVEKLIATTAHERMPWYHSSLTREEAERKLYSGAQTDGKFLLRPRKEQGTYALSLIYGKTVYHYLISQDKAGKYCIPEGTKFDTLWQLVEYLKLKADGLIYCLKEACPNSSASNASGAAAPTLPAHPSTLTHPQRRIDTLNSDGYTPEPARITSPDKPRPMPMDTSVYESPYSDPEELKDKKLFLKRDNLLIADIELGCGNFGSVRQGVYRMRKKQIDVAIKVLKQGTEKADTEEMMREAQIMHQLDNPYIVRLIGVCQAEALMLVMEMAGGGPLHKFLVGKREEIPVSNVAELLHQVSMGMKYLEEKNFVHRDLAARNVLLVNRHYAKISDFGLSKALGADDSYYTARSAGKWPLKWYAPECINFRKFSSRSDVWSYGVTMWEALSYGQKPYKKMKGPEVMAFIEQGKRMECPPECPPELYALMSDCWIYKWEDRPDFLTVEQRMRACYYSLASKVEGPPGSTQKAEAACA

[2] = target: T2, Tyrosine-protein kinase JAK3 (Homo sapiens) (UniProt P52333); experiment: Selectivity interaction (Kinase panel (Carna Biosciences)) EUB0001542aTs JAK3; conditions: at 1 µM
T2 sequence (whole entry): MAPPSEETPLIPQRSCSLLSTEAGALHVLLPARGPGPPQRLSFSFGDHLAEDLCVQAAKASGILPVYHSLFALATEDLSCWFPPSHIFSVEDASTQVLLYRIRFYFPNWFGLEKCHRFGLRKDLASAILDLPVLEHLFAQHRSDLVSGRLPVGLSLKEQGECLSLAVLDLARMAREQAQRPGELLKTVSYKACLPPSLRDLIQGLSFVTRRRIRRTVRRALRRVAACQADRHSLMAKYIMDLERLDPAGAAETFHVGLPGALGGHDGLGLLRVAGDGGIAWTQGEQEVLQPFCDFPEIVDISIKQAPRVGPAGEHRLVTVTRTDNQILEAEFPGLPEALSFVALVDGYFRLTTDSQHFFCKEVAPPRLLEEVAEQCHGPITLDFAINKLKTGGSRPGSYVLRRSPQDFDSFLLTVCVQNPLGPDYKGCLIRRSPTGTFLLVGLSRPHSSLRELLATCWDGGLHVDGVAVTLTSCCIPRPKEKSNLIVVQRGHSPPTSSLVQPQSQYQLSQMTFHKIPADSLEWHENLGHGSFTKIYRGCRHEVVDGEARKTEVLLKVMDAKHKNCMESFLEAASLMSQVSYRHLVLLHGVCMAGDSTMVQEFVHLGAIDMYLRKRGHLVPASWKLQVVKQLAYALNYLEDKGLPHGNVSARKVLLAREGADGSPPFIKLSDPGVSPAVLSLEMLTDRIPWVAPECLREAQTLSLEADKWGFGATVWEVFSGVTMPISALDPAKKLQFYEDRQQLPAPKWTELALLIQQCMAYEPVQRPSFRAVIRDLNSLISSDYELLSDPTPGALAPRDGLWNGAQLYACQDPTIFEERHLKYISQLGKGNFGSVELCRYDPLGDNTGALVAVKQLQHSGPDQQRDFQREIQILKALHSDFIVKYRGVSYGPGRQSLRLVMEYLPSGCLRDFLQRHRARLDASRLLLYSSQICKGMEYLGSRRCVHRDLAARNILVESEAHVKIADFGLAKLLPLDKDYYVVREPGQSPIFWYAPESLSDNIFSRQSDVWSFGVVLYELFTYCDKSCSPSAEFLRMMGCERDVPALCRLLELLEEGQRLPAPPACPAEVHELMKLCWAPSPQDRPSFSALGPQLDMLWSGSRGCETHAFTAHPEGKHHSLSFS

[3] = target: Serine/threonine-protein kinase MRCK gamma (Homo sapiens) (UniProt Q6DT37); conditions: at 10 µM
Sequence of Serine/threonine-protein kinase MRCK gamma (Homo sapiens) (Q6DT37 whole entry): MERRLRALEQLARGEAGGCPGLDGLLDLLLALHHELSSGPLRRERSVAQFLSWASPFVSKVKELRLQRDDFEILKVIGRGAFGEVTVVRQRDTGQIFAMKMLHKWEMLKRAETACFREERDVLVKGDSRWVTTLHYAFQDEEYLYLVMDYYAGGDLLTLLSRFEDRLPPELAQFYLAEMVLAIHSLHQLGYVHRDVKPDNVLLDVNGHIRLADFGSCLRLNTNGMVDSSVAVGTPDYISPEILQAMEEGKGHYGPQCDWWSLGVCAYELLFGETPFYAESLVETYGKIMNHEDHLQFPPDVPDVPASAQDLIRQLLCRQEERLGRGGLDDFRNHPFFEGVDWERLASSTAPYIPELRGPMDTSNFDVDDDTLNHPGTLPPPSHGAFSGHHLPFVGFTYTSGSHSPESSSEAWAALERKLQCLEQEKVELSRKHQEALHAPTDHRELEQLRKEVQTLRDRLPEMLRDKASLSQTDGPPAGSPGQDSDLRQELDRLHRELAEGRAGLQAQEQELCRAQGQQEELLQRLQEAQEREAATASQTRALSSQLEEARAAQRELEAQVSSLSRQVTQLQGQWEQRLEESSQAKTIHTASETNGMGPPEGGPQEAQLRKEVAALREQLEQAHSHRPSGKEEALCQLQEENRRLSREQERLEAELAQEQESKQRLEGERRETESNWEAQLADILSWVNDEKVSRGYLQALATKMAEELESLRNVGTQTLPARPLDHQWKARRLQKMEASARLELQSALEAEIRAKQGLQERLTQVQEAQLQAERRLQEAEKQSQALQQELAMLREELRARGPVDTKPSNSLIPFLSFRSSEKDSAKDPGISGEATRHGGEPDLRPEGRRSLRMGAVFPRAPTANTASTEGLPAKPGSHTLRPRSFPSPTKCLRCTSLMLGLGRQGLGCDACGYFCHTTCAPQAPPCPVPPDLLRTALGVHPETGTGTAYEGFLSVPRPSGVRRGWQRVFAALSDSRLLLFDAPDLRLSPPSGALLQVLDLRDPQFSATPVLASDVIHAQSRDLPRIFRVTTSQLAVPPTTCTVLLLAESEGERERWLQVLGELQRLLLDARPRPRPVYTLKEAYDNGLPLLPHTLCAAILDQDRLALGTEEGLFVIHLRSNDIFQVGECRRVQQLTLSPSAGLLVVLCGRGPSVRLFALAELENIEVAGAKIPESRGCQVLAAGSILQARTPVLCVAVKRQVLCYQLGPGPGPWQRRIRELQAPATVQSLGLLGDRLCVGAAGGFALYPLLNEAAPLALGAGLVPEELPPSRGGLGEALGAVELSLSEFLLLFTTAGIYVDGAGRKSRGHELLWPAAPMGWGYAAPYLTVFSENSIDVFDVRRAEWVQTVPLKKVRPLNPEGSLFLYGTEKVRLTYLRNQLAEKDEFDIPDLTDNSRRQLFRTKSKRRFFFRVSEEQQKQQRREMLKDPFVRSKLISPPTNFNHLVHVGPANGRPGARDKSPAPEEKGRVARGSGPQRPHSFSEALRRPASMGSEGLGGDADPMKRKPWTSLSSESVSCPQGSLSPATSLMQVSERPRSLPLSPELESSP

Q: With `COCC(=O)NC/C=C/c1ccc2ncnc(Nc3ccc(Oc4ccc(C)nc4)c(C)c3)c2c1` [CP-724714] as the compound, how does the % of control [1] read?
A: 100%

Q: How did the % of inhibition [2] turn out when `Cn1cc(Nc2nccc(N3CC4CCC(C3)N4C(=O)[C@@H]3CC3(F)F)n2)cn1` was run?
A: 92%

Q: Which % of control [3] does the source give for `CCN(CC)CCCCNc1ncc2cc(-c3cc(OC)cc(OC)c3)c(NC(=O)NC(C)(C)C)nc2n1` here?
A: 100%
